Tests used:
L. infantum amastigotes = assay: Ex vivo murine splenic explant culture with intramacrophagic iRFP L. infantum amastigotes; type: cell-based, Leishmania infantum; conditions: splenic-infecting amastigotes, ex vivo explants from infected BALB/c mice, 72 h; read-out: EC50 L. infantum amastigotes
Method: (§1) Two series of aromathecins (Table 1) have been tested against both stages of L. infantum, free-living promastigotes and intracellular amastigotes harbored in mouse splenic cells. Experiments were carried out using a genetically modified L. infantum strain that constitutively produces the iRFP protein. This makes it possible to evaluate the viability of parasites measuring the fluorescence emitted at 708 nm.
Primary splenocyte cultures containing intramacrophagic amastigotes were obtained from dissected spleens of female BALB/c mice infected intraperitoneally with 1.5 × 10^9 metacyclic iRFP L. infantum promastigotes, 5 weeks before their sacrifice. Mice were obtained commercially (Janvier-Labs). Animals were housed in specific-pathogen free facilities and they were euthanized by cervical dislocation without anesthesia. These protocols were approved by the Animal Care Committee of University of Leon (project license SAF2017–83575-R), which complies with European Union Legislation (2010/63/UE) and Spanish Act (RD 53/2013).
(§2) The spleens were washed with cold phosphate-buffered saline (PBS), cut in small pieces and incubated for 20 min with 5 mL of 2 mg/mL collagenase D (Sigma) prepared in buffer (10 mM HEPES, pH 7.4, 150 mM NaCl, 5 mM KCl, 1 mM MgCl2 and 1.8 mM CaCl2). After that, the cell suspension obtained was passed through a 100 μm cell strainer, harvested by centrifugation (500×g for 7 min at 4 °C), washed twice with PBS, and cultured at 37 °C under 5% CO2 atmosphere in RPMI medium (Gibco) supplemented with 10 mM HEPES, 1 mM sodium pyruvate, 1xRPMI 1640 vitamin mix, 10% (v/v) FBS, 50 U/mL penicillin and 50 μg/mL streptomycin (Calvo-Álvarez et al., 2015).
(§3) The viability of cultured parasites in the presence of different concentrations of aromathecins was determined by measuring the reduction of infrared fluorescence emitted by free-living promastigotes/amastigotes with respect to negative controls of each form of the parasite treated with DMSO (up to 0.1% final concentration) as a vehicle. […] After 72 h incubation at 26 °C, the infrared fluorescence emitted at 708 nm by viable promastigotes/amastigotes was measured in an Odyssey (Li-Cor) infrared imaging system. Similarly, the cytotoxic effect (CC50) of aromathecins on uninfected splenic explants from BALB/c mice (cells that naturally harbor the amastigote stage) was measured by the Alamar Blue (Invitrogen) assay. The selectivity index (SI) was determined as the relationship between the CC50 value and the EC50 value for amastigotes. CC50 and EC50 were calculated by nonlinear analysis using the Sigma-Plot 10.0 statistical package. The aromathecins were dissolved in DMSO and stored at − 20 °C before their use as fresh aliquots.

[1] = system: L. infantum promastigotes; assay: In vitro iRFP L. infantum promastigotes viability assay (infrared fluorescence); type: cell-based, Leishmania infantum; conditions: iRFP-L. infantum promastigotes, 72 h, 26 °C, fluorescence at 708 nm; average of three experiments by duplicate; read-out: EC50 L. infantum promastigotes
Method: as §1
The antiparasitic activity of the compounds was assessed on the genetically modified iRFP L. infantum strain, which constitutively produces the infrared fluorescent protein (iRFP) when cells are viable. iRFP L. infantum was grown at 26 °C in M-199 medium (Gibco) supplemented with 25 mM HEPES pH 7.2, 0.1 mM adenine, 0.0005% (w/v) hemin, 2 μg/mL biopterin, 0.0001% (w/v) biotin, 10% (v/v) heat-inactivated fetal bovine serum (FBS) and an antibiotic cocktail comprising 50 U/mL penicillin and 50 μg/mL streptomycin.
as §3

Murine Splenocytes = assay: Cytotoxicity on uninfected splenic explants (Alamar Blue); type: cell-based, BALB/c mice
Method: as §2, §3

What does the source list for C[C@@H]1[C@H](O)[C@@H](C)/C=C/C=C/C=C/C=C/C=C/C=C/C=C/[C@H](O[C@@H]2O[C@H](C)[C@@H](O)[C@H](N)[C@@H]2O)C[C@@H]2O[C@](O)(C[C@@H](O)C[C@@H](O)[C@H](O)CC[C@@H](O)C[C@@H](O)CC(=O)O[C@H]1C)C[C@H](O)[C@H]2C(=O)O [AMB, reference compound]?
EC50 (L. infantum amastigotes): 300 nM; EC50 [1]: 800 ± 100 nM; CC50 (Murine Splenocytes): > 20000 nM

Source: PMC6842543, “Antiparasitic effect of synthetic aromathecins on Leishmania infantum” (BMC Veterinary Research, 2019)
